For test [1], the system named is mesenchymal stem cells (MSCs). The experiment in a line: Osteogenic, adipogenic and neural differentiation of MSCs. In kind it is cell-based. Conditions: GW-treated MSCs. The procedure: (A) and (B) show osteogenic differentiation of MSCs and EP4 antagonist GW-treated MSCs. MSCs were cultured in osteogenic differentiation medium and then stained with Alizarin Red S. Osteogenic differentiation was quantified by measuring the optical density (OD) of Alizarin Red S staining. […] MSCs were cultured in adipogenic differentiation medium. […] MSCs were cultured in neural differentiation medium for 7 or 14 days and then analyzed for the expression of neuronal marker tublin β3 and NeuN using western blotting.
GW-treated MSCs were cultured in osteogenic differentiation medium, adipogenic differentiation medium and neuron differentiation medium, respectively.

For test [2], the system named is NAMECs. Nature of the test: Western blot of exosome markers and proteins in CM-P4 fractions of NAMECs. In kind it is cell-based, human. The text has this: FIG. 2 includes graphs and blots showing analyses of GW-treated NAMEC P4 fractions. CM-P4 GW-treated NAMECs were collected and subjected to (A) NanoSight Nanoparticle Tracking Analysis (NTA) and (B) Dynamic Light Scattering/Zeta Potential Analysis (DLS). […] D: particle diameter. RN: relative number. (C) is a blot showing the amounts of the CD44 stem cell marker and the CD81, CD9, TSG101, Alix, HSP70 and GAPDH exosome markers measured in the indicated CM-P4 fractions and cell lysates. The culture media and cell lysates were collected from the same number of NAMECs treated with vehicle (Crl), GW627368X (GW) or PGE2 (1 μM) for 4 days. (D) is a blot showing the amounts of the GAPDH and CD81 exosome markers and the CD44 stem cell marker measured in the CM-P4 fraction of NAMECs (CD44hi/CD24− stem cells) or CD44lo/CD24+ non-stem cells (HMLE cells) treated with vehicle (Crl) or GW for 2 days. 1×: P4 exosome fraction released by 1×10^6 cells; 2×: P4 exosome fraction released by 2×10^6 cells. […] (E) is a blot showing that the CD44 stem cell marker and GAPDH and CD81 exosome markers were measured in the indicated P4 conditioned medium fractions of NAMECs treated with vehicle (Crl), GW627368X (GW, 1 μg/ml), AH23848 (EP4 antagonist; 0.4, 2, 4 μg/ml), or AH6809 (EP1/2/3 antagonist; 0.8, 4, 8 μg/ml). (F) is a blot showing the HSP70, GAPDH and CD81 exosome markers measured in the indicated CM-P4 of NAMECs, NAMEC-shEP4-1 cells, and NAMEC-shEP4-2 cells treated with vehicle or with doxycycline (Dox, 2 μg/ml) (top panel). Doxyclycline (Dox) induced the production EP4 shRNA in NAMEC-shEP4 cells (bottom panel).
The P4 exosome fractions and cell lysates were collected from NAMECs treated with vehicle (Crl), GW627368X (GW), or PGE2 for 4 days. 1×: P4 exosome fraction released by 2.5×10^5 cells; 5×: P4 exosome fraction released by 12.5×10^5 cells. Hg: Hg-integrin β1, Lg: Lg-integrin β1, H: H-integrin α6, L: L-integrin α6, pg: pg-LRP6, g: g-LRP6, Ng: Ng-LRP6.
The isolated human mammary epithelial stem cells (NAMECs) were cultured in mammary epithelial cell basal medium (250 ml MCDB-170, 250 ml DMEM-F12, 1.2 g sodium bicarbonate, 2.5 μg EGF, 0.25 mg Hydrocortisone, 2.5 mg insulin, 35 mg BPE) with or without containing EP4 antagonist, i.e., GW627368X (GW) at 1 μg/ml, or AH23848 (AH) at 4 μg/ml, for 4 days. The culture medium was supplied with 0.5 μg/ml of GW or 2 μg/ml of AH23848 at the third day of the culturing period. For the induction of EP4 antagonist-induced exosomes from mouse mammary epithelial cells, cells were cultured in a medium containing 10 μg/ml of GW for 4 days.
The culture media were centrifuged at 300 g for 5 min to remove cells (P1), at 2,000 g for 20 min (P2), then at 10,000 g for 30 min (P3) all at 4° C. Dead cells and cell debris were removed at 300 g (P1) and 1200 g (P2). […]
For orientation: A western blot detects proteins with antibodies after separation by electrophoresis.

Test [3] relates to MDA-MB-231 cells. Nature of the test: NTA and EV protein of CM-P4 fractions of MDA-MB-231 cells. In kind it is cell-based, human. The text has this: (A) Quantification of EV/exosome release, shown as the number of particles in the CM-P4 fractions released per cell, from MCF-7 and MDA-MB-231 breast cancer cells treated with vehicle or with the indicated concentrations of GW627368X. Particles in the P4 fractions were counted using nanoparticle tracking analysis. Data are means±SEM (n=10). *P≤0.05, ***P≤0.001. (B) Quantification of the total EV protein released from MCF-7 and MDA-MB-231 cells treated with vehicle or with the indicated concentrations of GW627368X. The amounts (m) of protein present per cell in the conditioned medium P4 fractions are presented as means±SEM (n=3). *P≤0.05; (C) Protein levels in the P4 EV/exosome fractions and cell lysates, analyzed by Western blot. Culture media and cell lysates were collected from the same numbers of MCF-7 and MDA-MB-231 cells treated with vehicle or with GW627368X (GW), at the indicated concentrations, for 4 days. The P4 fractions of the culture media, containing EVs, were isolated. […]
We next examined whether blocking EP4-mediated signaling with an EP4 antagonist can elicit EV-mediated removal of CSC proteins (e.g., mesenchymal markers and stem cell markers) in the human breast carcinoma MCF-7 and MDA-MB-231 cell lines. P4 fractions from the conditioned media (CM-P4) of GW-treated MCF-7 and MDA-MB-231 cells were analyzed using NTA (FIG. 21, A). […]

SMILES strings stand for the structures.

Turning to `CCOc1c2c(c(OCC)c3ccccc13)C(=O)N(c1ccc(CC(=O)NS(=O)(=O)c3ccccc3)cc1)C2` [GW627368X], the “abilities to differentiate into osteoblasts, adipocytes or nerve cells vs non-treated MSCs” value in test [1] is reported as “much lowered”. Besides, the “amount of total exosomal proteins released vs vehicle or PGE2” value in test [2] (4 days treatment) is “much greater”. Besides, the “exosome release by exosome markers in CM-P4 fractions” value in test [2] (AH23848 0.4, 2, 4 μg/ml, AH6809 0.8, 4, 8 μg/ml, GW 1 μg/ml) was “Large amounts”. The “amount of protein per cell in the EV/exosome fraction” value in test [3] (GW-treated MDA-MB-231) is 10 fold. Also, the “numbers of EVs released” value in test [3] (increasing concentrations of GW) was “modestly increased”.
